Among the data in ChEMBL document CHEMBL4190164 (Medchemcomm, 2016) are Ki, inhibition of growth and IC50 values, retold here.

Test [1] addresses Epidermal growth factor receptor (Homo sapiens, UniProt P00533). Nature of the test: Inhibition of recombinant human GST-tagged wild-type EGFR expressed in baculovirus infected Sf9 insect cells using poly (Glu,Tyr) 4:1 as substrate after 60 mins in presence of [gamma33P]ATP by scintillation counting method.
Test [2] addresses Insulin-like growth factor 1 receptor (Homo sapiens, UniProt P08069). The test is described as follows: Inhibition of recombinant human GST-tagged IGF1R expressed in baculovirus infected Sf9 insect cells using poly (Glu,Tyr) 4:1 as substrate after 60 mins in presence of [gamma33P]ATP by scintillation counting method.
Test [3] concerns BT-549. Nature of the test: Growth inhibition of human BT549 cells at 10 uM after 48 hrs by sulforhodamine B assay relative to control. The format is functional. The note with it: BT-549, 48 h, read-out: GI. In general terms: Sulforhodamine B stains cellular protein and so reports cell mass.
Test [4] deals with Hs-578T. The test is described as follows: Growth inhibition of human Hs 578T cells at 10 uM after 48 hrs by sulforhodamine B assay relative to control. The note with it: read-out: GI. The format is functional.
Test [5] concerns HOP-62. The test is described as follows: Growth inhibition of human HOP62 cells at 10 uM after 48 hrs by sulforhodamine B assay relative to control. The conditions noted are these: HOP-62, 48 h, read-out: GI. The format is functional.
Test [6] relates to NCI-H460. The test is described as follows: Growth inhibition of human NCI-H460 cells at 10 uM after 48 hrs by sulforhodamine B assay relative to control. The conditions noted are these: NCI-H460, 48 h, read-out: GI. The test is classed as functional.

For orientation: Ki means a dissociation constant, usually derived from enzyme kinetics or from competition with a known ligand. By IC50 is commonly meant the midpoint of a concentration-inhibition curve.

Chain of Epidermal growth factor receptor (P00533 whole entry): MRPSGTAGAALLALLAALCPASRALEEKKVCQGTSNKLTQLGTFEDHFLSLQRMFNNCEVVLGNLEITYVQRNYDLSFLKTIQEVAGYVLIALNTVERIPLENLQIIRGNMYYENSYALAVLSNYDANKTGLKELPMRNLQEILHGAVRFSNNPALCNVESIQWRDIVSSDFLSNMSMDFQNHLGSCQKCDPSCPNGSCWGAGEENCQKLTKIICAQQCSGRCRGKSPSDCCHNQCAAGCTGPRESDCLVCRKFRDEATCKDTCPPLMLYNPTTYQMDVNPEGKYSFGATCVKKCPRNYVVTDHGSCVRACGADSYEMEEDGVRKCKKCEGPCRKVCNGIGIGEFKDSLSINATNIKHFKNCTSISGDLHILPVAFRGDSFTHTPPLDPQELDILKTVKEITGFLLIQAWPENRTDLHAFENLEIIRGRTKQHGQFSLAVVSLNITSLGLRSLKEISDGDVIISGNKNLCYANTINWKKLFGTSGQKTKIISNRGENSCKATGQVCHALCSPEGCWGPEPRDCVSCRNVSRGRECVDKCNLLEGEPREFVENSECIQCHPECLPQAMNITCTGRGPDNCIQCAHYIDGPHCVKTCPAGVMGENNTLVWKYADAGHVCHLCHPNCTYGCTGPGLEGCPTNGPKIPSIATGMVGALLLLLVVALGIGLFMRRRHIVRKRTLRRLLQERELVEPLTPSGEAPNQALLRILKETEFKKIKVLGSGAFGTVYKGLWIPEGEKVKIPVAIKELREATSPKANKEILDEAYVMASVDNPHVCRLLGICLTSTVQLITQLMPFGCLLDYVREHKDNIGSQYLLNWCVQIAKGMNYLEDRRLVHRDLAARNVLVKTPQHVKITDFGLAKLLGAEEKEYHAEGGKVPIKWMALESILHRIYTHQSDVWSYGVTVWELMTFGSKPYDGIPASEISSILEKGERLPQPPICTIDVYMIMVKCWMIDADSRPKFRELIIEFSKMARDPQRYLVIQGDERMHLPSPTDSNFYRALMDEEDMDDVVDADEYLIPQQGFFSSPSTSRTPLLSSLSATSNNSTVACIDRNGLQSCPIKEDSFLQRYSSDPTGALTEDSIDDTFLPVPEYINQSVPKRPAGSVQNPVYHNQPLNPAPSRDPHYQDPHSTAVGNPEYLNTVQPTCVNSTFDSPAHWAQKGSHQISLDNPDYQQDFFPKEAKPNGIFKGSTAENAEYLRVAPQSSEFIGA
Chain of Insulin-like growth factor 1 receptor (P08069 31-736 limits assumed): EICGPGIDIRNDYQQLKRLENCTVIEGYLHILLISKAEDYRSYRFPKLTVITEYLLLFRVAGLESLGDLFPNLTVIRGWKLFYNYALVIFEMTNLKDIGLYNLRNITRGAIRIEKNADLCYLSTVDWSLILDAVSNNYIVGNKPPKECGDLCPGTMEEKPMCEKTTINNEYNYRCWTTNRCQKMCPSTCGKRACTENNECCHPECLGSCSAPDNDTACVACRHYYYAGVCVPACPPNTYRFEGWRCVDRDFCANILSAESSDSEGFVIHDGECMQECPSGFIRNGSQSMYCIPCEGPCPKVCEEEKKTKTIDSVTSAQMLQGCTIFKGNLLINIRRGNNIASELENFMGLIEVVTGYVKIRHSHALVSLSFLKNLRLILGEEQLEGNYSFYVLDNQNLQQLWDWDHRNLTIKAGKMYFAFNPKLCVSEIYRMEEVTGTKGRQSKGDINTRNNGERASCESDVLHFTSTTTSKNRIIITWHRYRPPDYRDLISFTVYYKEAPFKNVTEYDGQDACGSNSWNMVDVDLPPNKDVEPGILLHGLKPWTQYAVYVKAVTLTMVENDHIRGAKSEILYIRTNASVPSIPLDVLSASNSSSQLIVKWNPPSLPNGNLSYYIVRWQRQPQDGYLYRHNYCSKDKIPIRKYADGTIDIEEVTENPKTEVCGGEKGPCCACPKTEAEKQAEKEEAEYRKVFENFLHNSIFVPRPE
Chain of Insulin-like growth factor 1 receptor (P08069 741-1367 limits assumed): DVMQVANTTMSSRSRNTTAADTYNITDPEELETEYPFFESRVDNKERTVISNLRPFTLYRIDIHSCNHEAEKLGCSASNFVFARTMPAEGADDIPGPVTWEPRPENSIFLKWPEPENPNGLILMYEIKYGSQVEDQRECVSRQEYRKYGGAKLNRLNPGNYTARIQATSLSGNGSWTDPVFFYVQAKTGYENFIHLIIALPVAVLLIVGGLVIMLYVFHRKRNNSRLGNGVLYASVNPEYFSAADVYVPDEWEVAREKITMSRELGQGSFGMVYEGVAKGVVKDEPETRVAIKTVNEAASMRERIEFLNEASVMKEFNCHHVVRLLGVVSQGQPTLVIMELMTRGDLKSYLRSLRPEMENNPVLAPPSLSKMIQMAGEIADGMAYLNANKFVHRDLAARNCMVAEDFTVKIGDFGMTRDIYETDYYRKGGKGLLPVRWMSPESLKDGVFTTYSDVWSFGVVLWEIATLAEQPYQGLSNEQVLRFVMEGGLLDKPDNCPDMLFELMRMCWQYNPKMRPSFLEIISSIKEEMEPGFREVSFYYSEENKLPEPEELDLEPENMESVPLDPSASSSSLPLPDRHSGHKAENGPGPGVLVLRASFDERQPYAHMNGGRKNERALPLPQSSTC

Regarding `COc1cccc(CNc2ccnc3[nH]c4ccc(N)cc4c23)c1`, the Ki in test [1] worked out at 0.32 µM; in test [2], 3.56 µM.
Taken in the same sequence, the figures for `O=[N+]([O-])c1ccc2oc3nccc(NCc4ccc(Br)cc4)c3c2c1` were 0.81 µM and 2.87 µM.
Taken in the same sequence, the figures for `Nc1ccc2[nH]c3nccc(NCc4cccc(Cl)c4)c3c2c1` were 0.14 µM and 1.92 µM.
In the case of `COc1cccc(CNc2ccnc3oc4ccc(N)cc4c23)c1`, the Ki in test [1] was found to be 0.17 µM; in test [2], 0.54 µM. For the same molecule, the inhibition of growth at 10 µM is 43% in test [3], 16% in test [4], 28% in test [5] and 29% in test [6].
As to `Nc1ccc2oc3nccc(NCc4ccc(Br)cc4)c3c2c1`, the IC50 in test [1] and in test [2] was > 1000 µM each time.
Turning to `O=[N+]([O-])c1ccc2[nH]c3nccc(NCc4cccc(Br)c4)c3c2c1`, the figures for the Ki in test [1] and in test [2] were 0.11 µM and 0.32 µM, respectively.
Take `COc1ccc(CNc2ccnc3oc4ccccc4c23)cc1`: the Ki in test [2] turned out to be 1.03 µM.
As for `COc1ccc(CNc2ccnc3oc4ccc(N)cc4c23)cc1`, the IC50 in test [1] and in test [2] was > 1000 µM each time.
As to `Nc1ccc2oc3nccc(NCc4cccc(Cl)c4)c3c2c1`, the Ki in test [1] came to 0.4 µM; in test [2] it was 4.6 µM.
Turning to `COc1ccc(CNc2ccnc3oc4ccc([N+](=O)[O-])cc4c23)cc1`, the results for the Ki in test [1] and in test [2] were 2.05 µM and 3.4 µM, respectively.
For `Nc1ccc2oc3nccc(NCc4cccc(Br)c4)c3c2c1`, the Ki in test [1] is 0.23 µM. In addition, the IC50 in test [2] was > 1000 µM. The inhibition of growth at 10 µM in test [3] is 29%; in test [4], 16%; in test [5] it was 18%; in test [6] it was 23%.
With `O=[N+]([O-])c1ccc2[nH]c3nccc(NCc4cccc(Cl)c4)c3c2c1`, the Ki worked out at 0.08 µM in test [1] and 0.28 µM in test [2]. In addition, the inhibition of growth at 10 µM in test [3] came to 30%; in test [4] it was 82%; in test [5] it was 89%; in test [6], 73%.
Turning to `O=[N+]([O-])c1ccc2oc3nccc(NCc4cccc(Br)c4)c3c2c1`, the Ki in test [1] was determined as 0.68 µM; in test [2] it was 2.61 µM.
Taken in the same sequence, the figures for `O=[N+]([O-])c1ccc2oc3nccc(NCc4cccc(Cl)c4)c3c2c1` were 1.36 µM and 2.85 µM.
Taken in the same sequence, the figures for `COc1cccc(CNc2ccnc3[nH]c4ccc([N+](=O)[O-])cc4c23)c1` were 0.33 µM and 0.89 µM.
Taken in the same sequence, the figures for `Nc1ccc2[nH]c3nccc(NCc4cccc(Br)c4)c3c2c1` were 0.11 µM and 2.1 µM.
Regarding `Nc1ccc2oc3nccc(NCc4ccc(Cl)cc4)c3c2c1`, the IC50 in test [1] and in test [2] was > 1000 µM in each case.
With `O=[N+]([O-])c1cccc(CNc2ccnc3oc4ccc([N+](=O)[O-])cc4c23)c1`, the values for the Ki in test [1] and in test [2] were 0.93 µM and 2.39 µM, respectively.
Taken in the same sequence, the figures for `COc1cccc(CNc2ccnc3oc4ccc([N+](=O)[O-])cc4c23)c1` were 2.74 µM and 4.56 µM.
Taken in the same sequence, the figures for `Nc1cccc(CNc2ccnc3oc4ccc([N+](=O)[O-])cc4c23)c1` were 3.59 µM and 6.18 µM.
Turning to `Nc1cccc(CNc2ccnc3oc4ccc(N)cc4c23)c1`, the Ki amounted to 0.94 µM in test [1] and 8.93 µM in test [2].
Taken in the same sequence, the figures for `O=[N+]([O-])c1ccc2oc3nccc(NCc4ccc(Cl)cc4)c3c2c1` were 2.52 µM and 3.54 µM.
